Here are results for 6 compounds from paper PMC5805629 (Journal of medicinal chemistry, 2018).

Each structure is given as a SMILES string.

In data set [1] the target is T1, human P-gp (Homo sapiens, UniProt P08183). To be noted: read-out: [125I]-IAAP labeling IC50; inhibition of photolabeling of P-gp; cited from earlier work.
The subject of another data set is tumor. To be noted: mice; no apparent side-effects; cited from earlier work.
Data set [2] concerns SW620/Ad300 drug-resistant cell lines. To be noted: 10 μM in vitro; cited from earlier work.
Data set [3] has the same test system. The following applies: cited from earlier work.
Data set [4] concerns the target T1, human P-gp. The following applies: 20 min, 2.5 µM, pH 6.8.
For a further data set, the target named is CYP3A4 (Homo sapiens, UniProt P08684). The data set can be described thus: In vitro CYP3A4 enzyme inhibition assay. The format is in vitro ADME. The following applies: 25 μM.
Chain of CYP3A4 (P08684 whole entry): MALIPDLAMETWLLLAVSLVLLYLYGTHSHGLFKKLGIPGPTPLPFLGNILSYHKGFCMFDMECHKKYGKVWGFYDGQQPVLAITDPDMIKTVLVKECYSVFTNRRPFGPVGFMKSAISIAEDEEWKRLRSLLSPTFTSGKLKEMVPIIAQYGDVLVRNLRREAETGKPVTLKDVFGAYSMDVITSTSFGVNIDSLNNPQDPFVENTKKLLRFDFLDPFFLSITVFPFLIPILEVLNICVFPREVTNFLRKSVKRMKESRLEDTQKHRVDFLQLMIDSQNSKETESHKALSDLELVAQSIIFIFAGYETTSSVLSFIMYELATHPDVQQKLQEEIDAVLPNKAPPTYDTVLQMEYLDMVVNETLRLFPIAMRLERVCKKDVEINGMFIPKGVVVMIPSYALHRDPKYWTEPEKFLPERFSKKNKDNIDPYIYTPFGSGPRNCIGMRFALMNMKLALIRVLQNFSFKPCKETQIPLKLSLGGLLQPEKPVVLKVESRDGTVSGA
The nature of a further data set: MDR reversal. The format is cell-based. The following applies: human.
For a further data set, the system named is HEK 293-pcDNA 3.1 cells. In words: MDR reversal. The format is cell-based. To be noted: 72 h, read-out: IC50 ± SD of paclitaxel.
Data set [5] concerns parental and resistant cell lines. The data set can be described thus: Preliminary cytotoxicity of reversal compounds treated alone. The following applies: 5 μM concentration. The format is cell-based.

T1 sequence (P08183 whole entry): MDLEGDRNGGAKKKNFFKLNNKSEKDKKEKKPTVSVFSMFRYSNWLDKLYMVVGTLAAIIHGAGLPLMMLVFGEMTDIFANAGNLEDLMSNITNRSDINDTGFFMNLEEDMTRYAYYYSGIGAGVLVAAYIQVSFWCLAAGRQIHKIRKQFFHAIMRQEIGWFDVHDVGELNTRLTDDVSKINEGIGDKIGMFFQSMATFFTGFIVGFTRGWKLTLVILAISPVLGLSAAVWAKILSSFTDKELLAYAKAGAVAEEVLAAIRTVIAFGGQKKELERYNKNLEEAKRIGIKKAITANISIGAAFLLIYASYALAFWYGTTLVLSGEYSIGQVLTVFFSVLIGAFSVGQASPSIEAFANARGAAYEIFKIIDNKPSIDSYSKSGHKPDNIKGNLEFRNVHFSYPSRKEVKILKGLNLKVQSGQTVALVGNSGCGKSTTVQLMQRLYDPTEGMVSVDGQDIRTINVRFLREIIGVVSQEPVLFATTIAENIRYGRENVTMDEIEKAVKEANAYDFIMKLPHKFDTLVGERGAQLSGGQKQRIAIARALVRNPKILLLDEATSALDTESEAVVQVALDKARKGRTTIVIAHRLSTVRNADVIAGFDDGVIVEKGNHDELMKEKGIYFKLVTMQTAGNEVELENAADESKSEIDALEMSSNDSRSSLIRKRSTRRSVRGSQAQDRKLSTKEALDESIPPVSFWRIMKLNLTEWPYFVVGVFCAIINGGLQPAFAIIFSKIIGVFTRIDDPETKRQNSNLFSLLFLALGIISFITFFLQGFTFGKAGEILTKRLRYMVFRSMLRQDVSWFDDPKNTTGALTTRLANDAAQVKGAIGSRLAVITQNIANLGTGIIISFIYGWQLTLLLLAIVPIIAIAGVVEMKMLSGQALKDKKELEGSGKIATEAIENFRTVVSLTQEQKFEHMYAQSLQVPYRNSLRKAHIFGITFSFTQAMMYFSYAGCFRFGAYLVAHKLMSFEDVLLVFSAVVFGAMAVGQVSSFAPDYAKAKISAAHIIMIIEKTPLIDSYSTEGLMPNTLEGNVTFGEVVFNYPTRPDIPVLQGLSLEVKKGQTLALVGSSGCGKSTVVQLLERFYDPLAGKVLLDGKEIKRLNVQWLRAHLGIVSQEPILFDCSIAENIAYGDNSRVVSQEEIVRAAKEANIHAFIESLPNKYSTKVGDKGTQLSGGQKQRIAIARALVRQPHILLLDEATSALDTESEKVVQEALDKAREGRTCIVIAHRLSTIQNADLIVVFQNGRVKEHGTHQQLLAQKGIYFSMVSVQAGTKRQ

Turning to `COc1cc(C(=O)N[C@H](c2nc(C(=O)Nc3ccccc3C(=O)c3ccccc3)cs2)C(C)C)cc(OC)c1OC` [Compound 1, (S)-N-(2-benzoylphenyl)-2-(2-methyl-1-(3,4,5-trimethoxybenzamido)propyl)thiazole-4-carboxamide], at human P-gp [1], the IC50 (in general, the point on the concentration scale where inhibition reaches its midpoint) was 720 nM. Moreover, the “tumor volume and tumor weight” value with tumor was “reduced tumor volume and tumor weight”. Moreover, the “reversal of resistance to paclitaxel, doxorubicin and vincristine” value in [2] is recorded as “significant reversal of resistance”. In [3], the intracellular paclitaxel concentration entry is “increased intracellular paclitaxel concentration”. Take `COc1cc(C(=O)N[C@H](c2nc(C(=O)NC3CCNCC3)cs2)C(C)C)cc(OC)c1OC` [Compound 42, (S)-2-(2-Methyl-1-(3,4,5-trimethoxybenzamido)propyl)-N-(piperidin-4-yl)thiazole-4-carboxamide]: at human P-gp [4], the “ATPase activity % Stimulation” value stood at 15%.

On to `COc1cc(C(=O)N[C@H](c2nc(C(=O)NCC3CCC(F)(F)CC3)cs2)C(C)C)cc(OC)c1OC` [Compound 63, (S)-N-((4,4-Difluorocyclohexyl)methyl)-2-(2-methyl-1-(3,4,5-trimethoxybenzamido)propyl)thiazole-4-carboxamide], for which, on human P-gp [4], the “ATPase activity % Stimulation” value is 21%.

For the compound `COc1cc(C(=O)NC(Cc2ccccc2)c2nc(C(=O)NC3CCC(F)(F)CC3)cs2)cc(OC)c1OC` (stereo not shown) [Compound 109, N-(4,4-Difluorocyclohexyl)-2-(2-phenyl-1-(3,4,5-trimethoxybenzamido)ethyl)thiazole-4-carboxamide], the “CYP3A4 Inhibition (%)” value at CYP3A4 is listed as “did not inhibit”. Consider `CC(=O)O[C@H]1C(=O)[C@@]2(C)[C@H]([C@H](OC(=O)c3ccccc3)[C@]3(O)C[C@H](OC(=O)[C@H](O)[C@@H](NC(=O)c4ccccc4)c4ccccc4)C(C)=C1C3(C)C)[C@]1(OC(C)=O)CO[C@@H]1C[C@@H]2O` [Paclitaxel, paclitaxel], for which, in “MDR reversal”, the IC50 at 72 h was 2050 ± 87 nM. The half-maximal inhibitory concentration (IC50) in the data set with HEK 293-pcDNA 3.1 cells amounted to 71 ± 15 nM. In the case of `O[C@@H](COc1cccc2ncccc12)CN1CCN([C@@H]2c3ccccc3[C@@H]3[C@H](c4ccccc42)C3(F)F)CC1` [Zosuquidar, zosuquidar], in data set [5], the cytotoxicity entry is reported as “cytotoxic”.
